Data taken from patent US8324246B2, “Indol carboxylic acid bispyridyl carboxamide derivatives, pharmaceutically acceptable salt thereof, preparation method and composition containing the same as an active ingredient” (Korea Research Institute of Chemical Technology, priority 2008, dated 2012).

Experiments:
[1] = target: T1, human gene recombinant 5-HT2c receptor expressed in CHO-K1 cell (Homo sapiens, UniProt P28335); experiment: Binding affinity to the serotonin 5-HT2c receptor ([3H]mesulergine); conditions: [3H]mesulergine 1 nM, 37° C. 30 minutes; Table 2; read-out: IC50
T1 construct: purchased Euroscreen, Belgium; host or cells: CHO-K1
T1 sequence (P28335 33-458): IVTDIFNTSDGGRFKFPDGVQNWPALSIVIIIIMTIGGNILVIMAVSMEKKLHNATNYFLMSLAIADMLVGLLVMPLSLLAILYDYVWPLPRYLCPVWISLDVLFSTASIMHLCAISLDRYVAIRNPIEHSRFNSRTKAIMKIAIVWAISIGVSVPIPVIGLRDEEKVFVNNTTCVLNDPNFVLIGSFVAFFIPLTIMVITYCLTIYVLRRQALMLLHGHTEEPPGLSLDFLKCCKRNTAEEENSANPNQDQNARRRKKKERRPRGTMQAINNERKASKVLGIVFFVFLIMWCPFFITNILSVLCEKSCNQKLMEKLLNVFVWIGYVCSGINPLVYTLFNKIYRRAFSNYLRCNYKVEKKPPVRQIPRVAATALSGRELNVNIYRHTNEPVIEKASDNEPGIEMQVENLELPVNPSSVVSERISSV
Method: As a receptor, a human gene recombinant 5-HT2c receptor expressed in CHO—K1 cell was purchased from Euroscreen, Belgium and used in the experiment, and as a radioactive isotope, [3H]mesulergine (Amersham Biosciences, UK).
A final volume of 0.25 ml reaction mixture was prepared by adding 50 mM Tris-HCl buffer (pH 7.7) containing one of the compounds in Examples 1-29 or Comparative Examples 1-2, 1 nM of [3H]mesulergine, 5-HT2c receptor membranes (4 D/well), 0.1% ascorbic acid and 10 µM pargyline, and incubated at 37° C. for 30 minutes. After incubation, the reaction was terminated by the rapid filtration using an Inotech harvester (Inotech) through a Wallace GF/C glass fiber filter (Wallac, Finland) which was presoaked in 1% BSA, and then washed with ice-cold 50 mM Tris-HCl buffer. The filter was covered with MeltiLex, sealed in a sample bag followed by drying in the oven, and counted by MicroBeta Plus (Wallac). Non-specific binding was determined in the presence of […] Mianserin. Three repeating experiments were carried out with 7-8 concentrations of the compound in Examples 1-29 or the compound in comparative examples 1-2, run in duplicate tubes, and isotherms from the three assays were calculated by a nonlinear regression analysis (GraphPad Prism Program, San Diego, USA) to yield IC50 values.

Cc1ncccc1Oc1ccc(NC(=O)c2c[nH]c3ccccc23)cn1 [Example 6, 1H-indole-3-carboxylic acid[6-(2-methyl-pyridine-3-yloxy)-pyridine-3-yl]-amide]
melting point: 108 to 110 °C
IC50 [1]: 0.067 µM

O=C(Nc1ccc(Oc2cccnc2)nc1)c1c[nH]c2ccccc12 [Example 24, 1H-indole-3-carboxylic acid[6-(pyridine-3-yloxy)-pyridine-3-yl]-amide]
IC50 [1]: 0.0016 µM

Cc1ncccc1Oc1ccc(NC(=S)c2c[nH]c3ccccc23)cn1 [Example 10]
IC50 [1]: 0.023 µM

O=C(Nc1ccc(Oc2cncnc2)nc1)c1c[nH]c2ccccc12 [Example 19, 1H-indole-3-carboxylic acid[6-(pyrimidin-5-yloxy)-pyridine-3-yl]-amide]
IC50 [1]: 0.05 µM

COc1nc(OC)nc(Oc2ccc(NC(=O)c3c[nH]c4ccccc34)cc2)n1 [Example 29, 1H-indole-3-carboxylic acid[4-(4,6-dimethoxy-[1,3,5]triazine-2-ylxoxy)-phenyl]-amide]
IC50 [1]: > 10 µM

Cc1ncccc1Oc1ccc(N(C)C(=O)c2cn(C)c3ccccc23)cn1 [Example 13, 1-methyl-1H-indole-3-carboxylic acid methyl-[6-(2-methyl-pyridine-3-yloxy)-pyridine-3-yl]-amide]
IC50 [1]: 6.37 µM

1H-indole-2-carboxylic acid[6-(2-methyl-pyridine-3-yloxy)-pyridine-3-yl]-amide [Example 5]
IC50 [1]: 0.059 µM

O=C(Nc1cccnc1)c1c[nH]c2ccccc12 [Example 26, 1H-indole-3-carboxylic acid pyridine-3-ylamide]
IC50 [1]: > 1 µM

O=C(Nc1ccc(Oc2ccccc2)nc1)c1c[nH]c2ccccc12 [Example 25, 1H-indole-3-carboxylic acid(6-phenoxy-pyridine-3-yl)-amide]
IC50 [1]: 0.542 µM

Cc1ncccc1Oc1ccc(NC(=O)c2cn(C)c3ccccc23)cn1 [Example 11, 1-methyl-1H-indole-3-carboxylid acid[6-(2-methyl-pyridine-3-yloxy)-pyridine-3-yl]-amide]
IC50 [1]: 0.474 µM

Cc1ncccc1Oc1ccc(NC(=O)c2ccc3ccccc3c2)cn1 [Example 8, naphthalene-2-carboxylic acid[6-(2-methyl-pyridine-3-yloxy)-pyridine-3-yl]-amide]
melting point: 156 to 158 °C
IC50 [1]: 0.302 µM

Cc1ncccc1Oc1ccc(NC(=O)c2coc3ccccc23)cn1 [Example 3, benzofuran-3-carboxylic acid[6-(2-methyl-pyridine-3-yloxy)-pyridine-3-yl]-amide]
melting point: 52 to 55 °C
IC50 [1]: 0.167 µM

Cc1ccc2c(C(=O)Nc3ccc(Oc4cccnc4Cl)nc3)c[nH]c2c1 [Example 28, 6-methyl-1H-indole-3-carboxylic acid[6-(2-chloro-pyridine-3-yloxy)-pyridine-3-yl]-amide]
IC50 [1]: 0.007 µM

O=C(Nc1ccc(Oc2cccnc2Br)nc1)c1c[nH]c2ccccc12 [Example 23, 1H-indole-3-carboxylic acid[6-(2-bromo-pyridine-3-yloxy)-pyridine-3-yl]-amide]
IC50 [1]: 0.106 µM

Cc1ncccc1Oc1ccc(NCc2c[nH]c3ccccc23)cn1 [Example 9, (1H-indole-3-ylmethyl)-[6-(2-methyl-pyridine-3-yloxy)-pyridine-3-yl]-amine]
IC50 [1]: > 10 µM

Cc1ncccc1Oc1ccc(NC(=O)c2nc3ccccc3[nH]2)cn1 [Example 7, 1H-benzoimidazole-2-carboxylic acid[6-(2-methyl-pyridine-3-yloxy)-pyridine-3-yl]-amide]
melting point: 191 to 193 °C
IC50 [1]: > 10 µM

O=C(Nc1ccc(-c2cccnc2)cc1)c1c[nH]c2ccccc12 [Example 27, 1H-indole-3-carboxylic acid (4-pyridine-3-yl-phenyl)-amide]
IC50 [1]: 0.214 µM

Cc1ncccc1Oc1ccc(NC(=O)c2csc3ccccc23)cn1 [Example 4, benzo[b]thiophene-3-carboxylic acid[6-(2-methyl-pyridine-3-yloxy)-pyridine-3-yl]-amide]
melting point: 81 to 83 °C
IC50 [1]: 0.05 µM

Cc1ncccc1Oc1ccc(NS(=O)(=O)c2csc3ccccc23)cn1 [Example 2, benzo[b]thiophene-3-sulfonic acid[6-(2-methyl-pyridine-3-yloxy)-pyridine-3-yl]-amide]
melting point: 93 to 95 °C
IC50 [1]: 0.572 µM

Cc1ccc(Oc2ccc(NC(=O)c3c[nH]c4ccccc34)cn2)cn1 [Example 21, 1H-indole-3-carboxylic acid[6-(6-methyl-pyridine-3-yloxy)-pyridine-3-yl]-amide]
IC50 [1]: 2.25 µM

Cc1ncccc1Oc1ccc(N(C)C(=O)c2c[nH]c3ccccc23)cn1 [Example 12, 1H-indole-3-carboxylic acid methyl-[6-(2-methyl-pyridine-3-yloxy)-pyridine-3-yl]-amide]
IC50 [1]: 9.44 µM

Cc1ncccc1Oc1ccc(NS(=O)(=O)c2coc3ccccc23)cn1 [Example 1, benzofuran-3-sulfonic acid[6-(2-methyl-pyridine-3-yloxy)-pyridine-3-yl]-amide]
melting point: 128 to 129 °C
IC50 [1]: 0.321 µM

Cc1cc2c(cc1C(F)(F)F)N(C(=O)Nc1ccc(OCc3ccccn3)nc1)CC2 [Comparative Example 2, SB-247853]
melting point: 220 to 222 °C
IC50 [1]: 0.0013 µM
